Reference: patent US5198452A, “Styryl phridyl compounds and their pharmaceutical compositions” (Yoshitomi Pharmaceutical Industries, Ltd., priority 1991, dated 1993)
Read-outs that look alike come from different tables or passages of the source.

What was measured:
[1] = tested on: leukotriene D4-induced contraction of guinea pig terminal ileum; assay: Inhibition of contractions of guinea pig terminal ileum induced with leukotriene D4; parameters: species or system guinea pig (male Hartly); settings: 1 nM LTD4; 2 min incubation; indomethacin 3 μM, atropin 0.3 μM; 37° C
Protocol: The inhibition of contractions of guinea pig terminal ileum induced with leukotriene D4.
Segments of male Hartly guinea pig terminal ileus were mounted under 750 mg tension in a 10 ml organ bath containing a Tyrode solution. To eliminate instrinsic prostaglandin and cholinergic responses, indomethacin (3 μM) and atropin (0.3 μM) were incorporated into bathing solution under continuous aeration at 37° C. […] measurements were made with an isotonic transducer and recorded on a multipen-recorder. After an equilibration period of 30-60 minutes, isotonic responses were 1 nm LTD4 were recorded until reproducible responses obtained. The submaximal contraction induced by 1 nM LTD4 served as control. Test compounds were dissolved in ethanol (0.1% final concentration) and incubated at various concentrations for 2 minutes before contractions were induced with 1 nM LTD4. The inhibition of contraction was calculated relative to the preceding control contraction. The inhibitory concentration (IC50, g/ml) were calculated graphically.

[2] = tested on: bronchoconstriction in guinea pigs induced with leukotriene D4; assay: Bronchoconstriction in guinea pigs induced with leukotriene D4; assay type: in vivo, guinea pig (female Hartley); settings: Cavia porcellus
Protocol: Actions of bronchoconstriction in guinea pigs induced with leukotriene D4.
Resistance to lung inflation was measured by the overflow method of Konzett and Rossler (Naunyn Schmiedebergs Arch. Exp. pathol. Pharmakol., 195, 71-74, 1940), modified by the use of an air pressure transducer. Female Hartley guinea pigs (350-450 g) were anesthetized with urethane (1.5 g/kg, i.p.). An endotracheal tube was inserted in the trachea and connected to an air pump (Matsushita Denko Co., Ltd.) with an exhaust relay of 50 strokes/minutes (PK-0305-NC, Takasago Electric, Inc.). The animals were artificially ventilated at a constant volume (3-4 ml). Tracheal pressure was recorded with a side-arm of the cannula connected to a pressure transducer (MFP-1, Nihon Kohden Kogyo Co., Ltd.). Test compounds or vehicles were administered i.v. (0.03 ml/100 g) 5 minutes or p.o. (0.5 ml/100 g) 1 hour prior to the intraveneous injection of LT04 (1 μg/kg). All compounds were injected through the cannulated jugular vein. The peak bronchoconstriction of each animal was determined as the percentage of the maximal pressure obtained by clamping off the trachea at the end of each experiment.
The inhibitory effect of the test compounds were expressed as follows: % of inhibition=(1-T/C)×100 wherein T and C are the average peak bronchoconstrictions for the compounds of the present invention and the vehicle, respectively.
The 50% effective doses (ED50, mg/kg) were calculated graphically.

[3] = Acute toxicity; settings: mouse, in vivo, single administration, after 10 days, Litchfield-Wilcoxon
Protocol: EXPERIMENT EXAMPLE 3: ACUTE TOXICITY
The compound of Example 1 of the present invention was intraveneously (iv) or orally (po) administered to a group of male ddy mice once. After 10 days, the LD50 values were determined by the Litchfield-Wilcoxon method.

[4] = 5 min, iv, 5 minutes prior to LTD4 (1 μg/kg i.v.), read-out: Action of Bronchoconstriction in guinea pigs induced with LTD4 [ED50 (mg/kg)] iv
[5] = po, 1 hour prior to LTD4 (1 μg/kg i.v.), read-out: Action of Bronchoconstriction in guinea pigs induced with LTD4 [ED50 (mg/kg)] po

Row | Structure (SMILES) | The inhibition of contractions of guinea pig terminal ileum induces with LTD4 [IC50 (g/ml)] [1] [g/mL] | ED50 [2, 4] [mg/kg] | ED50 [2, 5] [mg/kg] | LD50 at 240 h ([3]; iv, read-out: LD50 (mg/kg), iv) [mg/kg] | LD50 at 240 h ([3]; po, read-out: LD50 (mg/kg), po) [mg/kg]
1 | CCCc1ccc(CCCCOCc2cccc(/C=C/c3cccc(NC(=O)CC(CC)(CC)C(=O)O)c3)n2)cc1 [Compound E, 2-[(E)-2-(3-(3-carboxy-3-ethylvalerylamino)phenyl)ethenyl]-6-[4-(4-propylphenyl)butoxy]methylpyridine 1/4 hydrate] | 6e-10 | 0.006 | 1.9 |  | 
2 | CCC(CC)(CC(=O)Nc1cccc(/C=C/c2cccc(COCCCCc3ccc(CC(C)C)cc3)n2)c1)C(=O)O [Compound G, 2-[(E)-2-(3-(3-carboxy-3-ethylvalerylamino)phenyl)ethenyl]-6-[4-(4-isobutylphenyl)butoxy]methylpyridine] | 3.6e-10 | 0.0012 | 1.6 |  | 
3 | CCOc1ccc(CCCCOCc2cccc(/C=C/c3cccc(NC(=O)CC(CC)(CC)C(=O)O)c3)n2)cc1 [Compound H, 2-[(E)-2-(3-(3-carboxy-3-ethylvalerylamino)phenyl)ethenyl]-6-[4-(4-ethoxyphenyl)butoxy]methylpyridine] | 1.8e-10 | 0.01 | 2 |  | 
4 | CCc1ccc(CCCCOCc2cccc(/C=C/c3cccc(NC(=O)CC(CC)(CC)C(=O)O)c3)n2)cc1 [Compound D, 2-[(E)-2-(3-(3-carboxy-3-ethylvalerylamino)phenyl)ethenyl]-6-[4-(4-ethylphenyl)butoxy]methylpyridine] | 6.6e-11 | 0.0023 | 1 |  | 
5 | CCC(CC)(CC(=O)Nc1cccc(/C=C/c2cccc(COCCCCc3ccc(C(C)C)cc3)n2)c1)C(=O)O [Compound F, 2-[(E)-2-(3-(3-carboxy-3-ethylvalerylamino)phenyl)ethenyl]-6-[4-(4-isopropylphenyl)butoxy]methylpyridine] | 4e-10 | 0.014 | 2.2 |  | 
6 | CCC(CC)(CC(=O)Nc1cccc(/C=C/c2cccc(COCCCCc3ccc(OCCC(C)C)cc3)n2)c1)C(=O)O [Compound K, 2-[(E)-2-(3-(3-carboxy-3-ethylvalerylamino)phenyl)ethenyl]-6-[4-(4-isopentyloxyphenyl)butoxy]methylpyridine 1/2 hydrate] | 3.1e-10 | 0.0036 | 0.25 |  | 
7 | CCC(CC)(CC(=O)Nc1cccc(/C=C/c2cccc(COCCCCc3ccc(C)cc3)n2)c1)C(=O)O [Example 1, 2-[(E)-2-(3-(3-carboxy-3-ethylvalerylamino)phenyl)ethenyl]-6-[4-(4-methylphenyl)butoxy]methylpyridine] |  |  |  | > 300 | > 1000
8 | CCCCc1ccc(CCCCOCc2cccc(/C=C/c3cccc(NC(=O)CC(CC)(CC)C(=O)O)c3)n2)cc1 [Compound B, 2-[(E)-2-(3-(3-carboxy-3-ethylvalerylamino)phenyl)ethenyl]-6-[4-(4-butylphenyl)butoxy]methylpyridine] | 1.1e-10 | 0.0054 | 0.8 |  | 
9 | CCCCOc1ccc(CCCCOCc2cccc(/C=C/c3cccc(NC(=O)CC(CC)(CC)C(=O)O)c3)n2)cc1 [Compound J, 2-[(E)-2-(3-(3-carboxy-3-ethylvalerylamino)phenyl)ethenyl]-6-[4-(4-butoxyphenyl)butoxy]methylpyridine 3/2 hydrate] | 9e-11 | 0.0046 | 0.46 |  | 
10 | CCC(CC)(CC(=O)Nc1cccc(/C=C/c2cccc(COCCCCc3ccccc3)n2)c1)C(=O)O [Compound A, 2-[(E)-2-(3-(3-carboxy-3-ethylvalerylamino)phenyl)ethenyl]-6-(4-phenylbutoxy)methylpyridine 1/2 hydrate] | 2.2e-09 | 0.037 | 1.3 |  | 
11 | CCCOc1ccc(CCCCOCc2cccc(/C=C/c3cccc(NC(=O)CC(CC)(CC)C(=O)O)c3)n2)cc1 [Compound I, 2-[(E)-2-(3-(3-carboxy-3-ethylvalerylamino)phenyl)ethenyl]-6-[4-(4-propoxyphenyl)butoxy]methylpyridine] | 7.6e-11 | 0.0023 | 2.5 |  | 
12 | CCC(CC)(CC(=O)Nc1cccc(/C=C/c2cccc(COCCCCc3ccc(F)cc3)n2)c1)C(=O)O [Compound C, 2-[(E)-2-(3-(3-carboxy-3-ethylvalerylamino)phenyl)ethenyl]-6-[4-(4-fluorophenyl)butoxy]methylpyridine 1/2 hydrate] | 2.5e-09 | 0.03 | 0.7 |  | 
13 | CCCc1c(OCCCCc2nnn[nH]2)ccc(C(C)=O)c1O [Compound L, 1-[2-hydroxy-3-propyl-4-(4-(1H-tetrazol-5-yl)butoxy)phenyl]ethanone, reference compound] | 2.5e-08 | 0.28 | 22 |  | 
